Laboratory results taken from patent publication US5013837A, “3-Arylcarbonyl-1H-indole-containing compounds” (Sterling Drug Inc., priority 1990, dated 1991).

Columns and labels:
[1] = test system: mouse vasa deferentia (MVD) preparation; assay: mouse vas deferens test (MVD); type: cell-based; conditions: inhibition of contractions in vitro, active at IC50 of 5.0 μM or less
Source text: Med. Assoc. 217, 1392 (1971)]. […] Opth. 7, 921-923 (1975); Green and Pederson, Effect of delta-9 Tetrahydrocannabinol on Aqueous Dynamics and Ciliary Body Permeability in the Rabbit Eye., Exptl. Eye Research 15, 499-507 (1973); Colasanti, Craig and Allara, Intraocular Pressure, Ocular Toxicity and Neurotoxicity after Administration of Cannabinol or Cannibigerol, Exptl. Eye Research 39, 252-259 (1984)]. Similarly, synthetic cannabinoids also reduce intraocular pressure [Green, Symunds, Oliver and Elijah, Intraocular Pressure Following Systemic Administration of Cannabinoids, Curr Eye Research 2, 247-253 (1982); Tiedeman, Shields, Weber, Crow, Coccetto, Harris and Howes, Ophthalmology, 88, 270-277 (1981); Colasanti et al., supra]. Cannabinoid receptor binding sites can be defined as those to which radio-labelled 4-(1,1-dimethylheptyl)-2,3'-dihydroxy-6'alpha-(3-hydroxypropyl)-1',2',3',4',5',6'-hexahydrobiphenyl (CP 55940) binds in a specific and saturable manner, and the binding sites are heterogeneously distributed in the brain [Devane, Dysarz, Johnson, Melvin and Howlett, Determination and Characterization of a Cannabinoid Receptor in Rat Brain, Molecular Pharm. 34, 605-613 (1988)]. Natural and synthetic cannabinoids and representative examples of the compounds of the present invention bind to CP 55940 binding sites. […]

[2] = topical application or systemic injection; cited from earlier work

| Compound | IC50 [1] | effect on intraocular pressure [2] |
| --- | --- | --- |
| O=C(c1ccc2ccccc2c1)c1cn(CCN2CCOCC2)c2ccccc12 [Example 1S] | 0.05 µM | – |
| CCCCCc1cc(O)c2c(c1)OC(C)(C)[C@@H]1CCC(C)=C[C@@H]21 [delta-9 tetrahydrocannabinol] | – | reduces intraocular pressure |
